Measured values taken from US20080200538A1, “Inhibition of Monocyte Survival, Differentiation, or Proliferation” (The Ohio State University Research Foundation, priority 2005, published 2008).

What was measured:
A549 cells = assay: Cell viability assay (CellTiter 96 / MTT, A490); type: cell-based; conditions: A549, apigenin, 24 h; reduced to
Description: (§1) FIG. 1. Effect of apigenin and naringenin in cell survival of cancer cells. (A) Structure of the flavonoids apigenin and naringenin. (B) THP-1, U937, A549, and MCF-7 cells were treated with various doses of apigenin or naringenin for 24 h. After the treatment, the percentage of cell proliferation was calculated as the ratio of treated cells to control cells as determined by the MTT method (A490). Data represents means ±SEM (N=9). […] Cells were plated at a density of 2×10^4 cells/well into 96-well plates and treated with flavonoids at indicated concentrations for 24 h. Absorbance at 490 nm (A490) was recorded using an ELISA plate reader (Bio-Tek ELx800, KC Junior, Winooski, Vt.).

MCF-7 cells = assay: Cell viability assay (CellTiter 96 / MTT, A490); type: cell-based; conditions: MCF-7, apigenin, 24 h; reduced to
Description: as §1

THP-1 cells [1] = assay: Cell survival and apoptosis by calcein AM/PI staining; type: cell-based, human
Description: FIG. 2. Apigenin induces cell death in monocytic leukemia cells. THP-1 and U937 leukemia cells were treated for various lengths of time with 50 μM apigenin or left untreated (NT) and stained with calcein AM and PI as described in Material and Methods to evaluate the percentage of cell survival. (A) THP cells after 12 h cells treated with 50 μM apigenin or with DMSO (NT). (B) The percentage of cell survival represented by means ±SEM (N=3).
FIG. 4. Caspase-3 activation is required for apigenin-induced apoptosis. THP-1 cells were treated for 12 h with 50 μM apigenin alone or pretreated with 20 μM DEVD-FMK for 1 h prior to the addition of apigenin. (A) Cells were then stained with calcein AM and 24 PI and the percentage of apoptotic cells was determined. (B) Lysates from cells treated as described above were used to determined caspase-3 activity by the DEVD-AFC assay. All data represents means ±SEM (N=5).
FIG. 7. Apigenin induced p38 activation is not required for apoptosis. A. Cells were pretreated for 1 h prior to addition of 50 μM apigenin or DMSO (−) with 10 or 25 μM concentrations of SB203580 or DMSO (−) for 12 h. The percentage of apoptotic cells was determined by calcein AM with PI stained cells. Data represents means ±SEM (N=5 p>0.05). B. Lysates from the same treatments were used to determined caspase-3 activity by the DEVD-AFC assay. Data represents means ±SEM (N=5 p>0.05).
To investigate apoptosis, cells were plated at a density of 1×10^6 cells/well. After treatment, cells were collected and washed in PBS. Cells were then incubated in RPMI (no phenol red) and 1 μg/ml calcein AM for 30 min and 5×10−2 ng/ml propidium iodide (PI) for 5 min. Cells were washed twice and resuspended in PBS. Cells were viewed using a fluorescent microscope (Olympus, Melville, N.Y.). At least 200 cells were counted. Cells calcein AM positive (green) in the absence of PI (red) were considered alive while cells undergoing apoptosis are green with red. Number of green cells or green with red cells was counted over total number of cells (green alone and green with red) to express cell survival or apoptotic cell percentage respectively.

caspase-9 = assay: Caspase-9 activity, LEHD-AFC assay, U937 lysates; type: cell-based, human; conditions: U937, 50 μM apigenin; remained high even after 24 h
Description: FIG. 3. Apigenin induces caspase activation in monocytic leukemia. THP-1 (top) and U937 (bottom) leukemia cells were treated for various lengths of time with 50 μM apigenin or DMSO (NT). (A and C) Caspase-9 activity was determined by the LEHDAFC assay. (B and D) Caspase-3 activity was determined by the DEVD-AFC assay. Data represents means ±SEM (N=3).
(§2) For measurements of caspase activity, cells were plated at a density of 1.5×10^6 cells/well. After treatment, cells extracts were prepared as previously described (Doseff, A. I., Baker J. H., Bourgeois T. A. and Wewers M. D. (2003) Interleukin-4-induced zpoptosis entails caspase activation and suppression of extracellular signal-regulated kinase phosphorylation. Am. J. Resp. Cell Mol. Biol., 29, 367-374). Protein extracts were incubated with 20 μM DEVD-AFC to determine caspase-3 activity or LEHD-AFC to determine caspase-9 activity (Enzyme Systems Products, Livermore, Calif.) in a cytobuffer as previously described (Doseff, A. I., Baker J. H., Bourgeois T. A. and Wewers M. D. (2003) Interleukin-4-induced zpoptosis entails caspase activation and suppression of extracellular signal-regulated kinase phosphorylation. Am. J. Resp. Cell Mol. Biol., 29, 367-374). Levels of released AFC were measured using Cytofluor 400 fluorimeter (Filters: excitation 400 nm, emission 508 nm; Perspective Co., Framingham, Mass.).

caspase-3 = assay: Caspase-3 activity in LPS-stimulated monocytes (DEVD-AFC); type: cell-based
Description: as §2
Apigenin reactivates caspase-3 on LPS-stimulated monocytes. Caspase-3 activity was determined by the DEVD-AFC assay in monocytes freshly isolated (Fresh) or monocytes cultured for 18 h left untreated, treated with 10 ng/m 1 LPS or (A) with different doses of apigenin alone, (B) with LPS and different doses of apigenin or (C) with LPS 1 h prior to the addition of apigenin. […]

IL-1β [2] = assay: IL-1β release from LPS-treated monocytes (sandwich ELISA); type: cell-based; conditions: LPS stimulated monocytes
Description: Effect of apigenin on IL-1β release. IL-1β released was determined by sandwich ELISA in supernatants of freshly isolated monocytes, or monocytes cultured for 18 h left untreated, treated with 10 ng/ml of LPS or A with different doses of apigenin. B. LPS and different doses of apigenin added at the same time. C. LPS added 1 h prior to the addition of different doses of apigenin. Values represent means ±SEM (N=5, * P<0.05, compared to LPS alone)

TNFα [3] = assay: TNFα release by LPS stimulated monocytes; type: cell-based
IL-1β [4] = assay: Cytokine expression in LPS-treated monocytes by quantitative PCR; type: cell-based; conditions: 10 ng/ml LPS and 10 μM apigenin
Description: (§3) Expression of IL-1β, IL-8 and TNFα was analyzed by quantitative PCR using lysates from monocytes left untreated, treated with 10 ng/ml of LPS or with LPS and 10 μM of apigenin. Values represent means ±SEM (N=4).

IL-8 = assay: as above; type: cell-based; conditions: 10 ng/ml LPS and 10 μM apigenin
Description: as §3

TNFα [5] = assay: as above; type: cell-based; conditions: 10 ng/ml LPS and 10 μM apigenin
Description: as §3

THP-1 cells [6] = assay: Reverse-phase HPLC of extracts of treated THP-1 cells (conversion of compound); conditions: extracts of THP-1 cells, data not shown

For `O=c1cc(-c2ccc(O)cc2)oc2cc(O)cc(O)c12` [apigenin], the “cell proliferation (ratio of treated to control cells)” value (A549 cells) was 80%, the “cell proliferation (ratio of treated to control cells)” value (MCF-7 cells) was 80% and the viability at 50 µM (THP-1 cells [1]; Homo sapiens, THP-1, 12 h, read-out: cell viability (survival)) was 30%. For the same compound, the apoptotic cells (THP-1 cells [1]; THP-1, 50 μM apigenin alone, 12 h) was 70%, the cell survival (THP-1 cells [1]; THP-1, 50 μM, 9 h, reduced to) was 80% and the “caspase-9 activity, time course” value (caspase-9) was “detected at 9 h”. The caspase-3 activation (caspase-3) was “significantly increases”, the “release of IL-1β” value (IL-1β [2]) was “inhibits” and the “release of TNFα” value (TNFα [3]) was “inhibits”. The “expression of IL-1β” value (IL-1β [4]) was “inhibits the expression”, the “expression of IL-8” value (IL-8) was “inhibits the expression” and the “expression of TNFα” value (TNFα [5]) was “inhibits the expression”. The “conversion to another chemical entity in treated cells” value (THP-1 cells [6]) was “neither one of these two compounds is significantly converted”.
